# Measurements published in patent publication US20240368163A1, “COMPOUNDS AND METHODS FOR MODULATING SPLICING” (REMIX THERAPEUTICS INC., priority 2021, published 2024).
# Experiments:
# Format in all cases: cell-based, human
# HTT [1] = assay: Splicing RT-qPCR assay, HTT mRNA canonical junction (CJ) and alternative junction (AJ); conditions: Homo sapiens, RT-qPCR panel, canonical junction mRNA; compound concentration having 50% response in CJ decrease; read-out: HTT IC50 (decrease in CJ mRNA levels)
# In short: (§1)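 Splicing switch read by one-step RT-qPCR of canonical and alternative exon junctions, housekeeper-normalized (GAPDH/GUSB/PPIA), 2^(−ΔΔCt) vs DMSO as percent response. Cells (A673 or K562) dosed 24 h, 11 points 3-fold from 10 uM, DMSO ≤0.25%.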
# MYB [2] = assay: Splicing RT-qPCR assay, MYB mRNA canonical junction (CJ) and alternative junction (AJ); conditions: Homo sapiens, RT-qPCR panel, canonical junction mRNA; compound concentration having 50% response in CJ decrease; read-out: MYB IC50 (decrease in CJ mRNA levels)
# In short: as §1
# SMN2 = assay: Splicing RT-qPCR panel, SMN2 canonical junction (CJ) mRNA; conditions: Homo sapiens, RT-qPCR panel, canonical junction mRNA; compound concentration having 50% response in CJ decrease; read-out: SMN2 IC50 (decrease in CJ mRNA levels)
# In short: as §1
# Target C [3] = assay: Splicing RT-qPCR panel, Target C canonical junction (CJ) mRNA; conditions: Homo sapiens, RT-qPCR panel, canonical junction mRNA; compound concentration having 50% response in CJ decrease; read-out: Target C IC50 (decrease in CJ mRNA levels)
# In short: as §1
# MYB [4] = assay: HiBiT protein abundance assay, MYB; conditions: Homo sapiens, K562, 24 h, Table 13A, modified K562 cells
# In short: (§2)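 Target abundance was measured as HiBiT luminescence after 24 h compound treatment of tagged K562 cells. Responses were normalized between unmodified K562 and DMSO-treated tagged cells, and IC50 taken at the 50% level of a 4PL curve.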
# HTT [5] = assay: HiBiT protein abundance assay, HTT; conditions: Homo sapiens, K562, 24 h, Table 13A, modified K562 cells
# In short: as §2
# Target C [6] = assay: HiBiT protein abundance assay, Target C; conditions: Homo sapiens, K562, 24 h, Table 13A, modified K562 cells
# In short: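 Cells carrying the HiBiT knock-in were plated at 10000 cells/well, dosed with compound (10-point, 3-fold, 10 μM top final) and incubated 24 hours at 37 °C. Lytic reagent was then added and luminescence read. Percent response fed a 4PL fit for IC50.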
SMILES,IC50 (HTT [1]) [µM],IC50 (MYB [2]) [µM],IC50 (SMN2) [µM],IC50 (Target C [3]) [µM],IC50 (MYB [4]) [µM],IC50 (HTT [5]) [µM],IC50 (Target C [6]) [µM]
CC1(C)CN(c2ncc(-c3ccc(-c4cn[nH]c4)c4ncsc34)nn2)CC(C)(C)N1 [Compound 563],1 to 10,1 to 10,1 to 10,> 10,1 to 10,1 to 10,1 to 10
CN1CCN(c2ncc(-c3ccc(-c4cn[nH]c4)c4ncsc34)nn2)CC1C1CC1 (stereo not shown) [Compound 564],0.1 to 1,1 to 10,0.1 to 1,1 to 10,1 to 10,0.1 to 1,0.1 to 1
c1nc2c(-c3cn[nH]c3)ccc(-c3cnc(N4CCN5CCCC5C4)nn3)c2s1 (stereo not shown) [Compound 565],1 to 10,1 to 10,1 to 10,> 10,1 to 10,1 to 10,1 to 10
c1nc2c(-c3cn[nH]c3)ccc(-c3cnc(N4CCN5CCCCC5C4)nn3)c2s1 (stereo not shown) [Compound 566],0.1 to 1,1 to 10,1 to 10,1 to 10,1 to 10,0.1 to 1,1 to 10
CN(c1ncc(-c2ccc(-c3cn[nH]c3)c3ncsc23)nn1)C1CC(C)(C)NC(C)(C)C1 [Compound 567],0.1 to 1,1 to 10,0.1 to 1,0.1 to 1,1 to 10,0.1 to 1,0.1 to 1
C[C@H]1CN(c2ncc(-c3ccc(-c4cn[nH]c4)c4ncsc34)nn2)C[C@@H](C2CC2)N1 [Compound 568],0.1 to 1,> 10,1 to 10,1 to 10,1 to 10,0.1 to 1,1 to 10
CC(C)(C)NC1CCN(c2ncc(-c3ccc(-c4cn[nH]c4)c4ncsc34)nn2)C1 (stereo not shown) [Compound 569],0.1 to 1,1 to 10,1 to 10,1 to 10,1 to 10,0.1 to 1,1 to 10
CC(C)(C)C1CN(c2ncc(-c3ccc(-c4cn[nH]c4)c4ncsc34)nn2)CCN1 (stereo not shown) [Compound 570],0.1 to 1,0.1 to 1,0.1 to 1,0.1 to 1,1 to 10,0.1 to 1,0.1 to 1
C[C@@H]1CN(c2ncc(-c3ccc(-n4cccn4)c4[nH]ncc34)nn2)C[C@H](C)N1 [Compound 571],1 to 10,1 to 10,1 to 10,1 to 10,1 to 10,0.1 to 1,1 to 10
CN(c1ncc(-c2ccc(-c3cn[nH]c3)c3ncsc23)nn1)[C@@H]1CC2CCC[C@@H](C1)N2C [Compound 573],1 to 10,> 10,> 10,> 10,1 to 10,1 to 10,1 to 10
CN(c1ncc(-c2ccc(-n3cccn3)c3[nH]ncc23)nn1)[C@@H]1C[C@H]2CCC[C@@H](C1)N2C [Compound 575],0.1 to 1,> 10,1 to 10,1 to 10,1 to 10,0.1 to 1,1 to 10
c1cnn(-c2ccc(-c3cnc(N4CCNC5(CC5)C4)nn3)c3cn[nH]c23)c1 [Compound 577],0.1 to 1,> 10,1 to 10,> 10,1 to 10,1 to 10,> 10
CC(C)(C)[C@@H]1CN(c2ncc(-c3ccc(-n4cccn4)c4[nH]ncc34)nn2)CCN1 [Compound 582],0.1 to 1,1 to 10,< 0.1,1 to 10,1 to 10,0.1 to 1,1 to 10
